The subject of assay [1] is Treg suppression of CD4+CD25- effector T cell proliferation. The assay can be described thus: Treg suppressive activity (suppression of CD4+CD25- effector T cell proliferation). It is filed as cell-based, human. As to the method: PBMC were isolated from fresh blood by differential density centrifugation using Ficoll-PLUS (GE Healthcare). Cells were washed three times in RPMI+1% heat-inactivated foetal calf serum (HI-FCS)+1% penicillin/streptomycin (P/S) (1% RPMI), then resuspended in PBS+2% heat inactivated foetal calf serum (HI-FCS)+2.0 mM EDTA (isolation buffer). CD4+CD25- and CD4+CD25+ T cells were isolated, per the manufacturer's instructions (Miltenyi CD4+CD25+ Regulatory T cell Isolation Kit, human). Isolated CD4+CD25− T cells were then labeled with Cell Proliferation Dye eFluor® 450 per manufacturer's instructions (eBioscience). An aliquot of cells was stained with anti-CD3 and anti-CD4 (BioLegend and eBioscience) to assess cell purity and dye labeling by flow cytometry. Cultures were plated in cRPMI, with […] CD4+CD25− cells per well. […]
FIG. 2. The proliferation of CD4+CD25− T cells, purified from a different donor and labelled with Cell Proliferation Dye eFluor® 450, was assessed following a 4 day activation with anti-CD3/CD28 beads. There was a robust proliferation of the cells, and they were readily distinguished from unlabeled cultured cells (generated in the 10 day culture period).
The number of proliferating CD4+CD25− “effector” T cells was determined at each ratio (1:4, 1:2, 1:1) of these cells to the cultured cells generated in the previous 10 day culture period (cultured “Treg”). […]

The test system of assay [2] is CMV-specific (NLV+) CD8+ Teff cells expressing IFNγ or TNFα. Put plainly: Human whole blood stimulated with (MTTE)3-CMV vaccine. Format: cell-based. The settings on record: 4 μM with 120 nM (MTTE)3-CMV vaccine, 6 hours, three donors. As to the method: Freshly drawn whole blood from healthy volunteers (2 mL) in a tube was incubated under rotation at 37° C. for 6 hours. […]. After 2 hours Brefeldin-A was added to allow intra-cellular analysis of cytokines (IFNγ and TNFα) by flow-cytometry. Antigen-specific CD8+ T-cells were identified by fluorescence-conjugated tetrameric complexes of HLA-A2 molecules loaded with the NLV peptide epitope ([…]) of CMV pp65.

In the case of `CO[C@@H](C)c1c(NC(=O)Nc2cnc(-n3nccn3)c(Cl)c2)cnc2cc(Cl)nn12` [Example 2, (S)-1-(5-chloro-6-(2H-1,2,3-triazol-2-yl)pyridin-3-yl)-3-(2-chloro-7-(1-methoxyethyl)pyrazolo[1,5-a]pyrimidin-6-yl)urea], in assay [1] (donor 1, 0.4 μM, 0.4 μM and 4.0 μM), the “Treg suppression of effector cell proliferation, donor 1” value is “reduced”. Besides, the “Treg suppression of proliferation of responding effector T cells, donors 2 and 3” value in assay [1] (donors 2 and 3, increasing concentrations) is given as “reduced by increasing concentrations”. Besides, in assay [2], the “percentage of activated antigen-specific IFNγ+ and TNFα+ CD8+ T cells” value is on record as “increase”.

For the origin of these results see patent US20200009135A1, “THERAPEUTIC APPLICATIONS OF MALT1 INHIBITORS” (MEDIVIR AB, priority 2017, published 2020).
